Tested on: 485368-065-R4-J2-PDC spheroids with HUVEC/MSC, viability
Assay: Anticancer human tumor 485368-065-R4-J2-PDC patient-derived pancreatic carcinoma cell line growth inhibition [CLK]
Conditions: for IC50: curve of first compound; for viability, T/C: stronger effect = lower value
In short: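 Multi-cell-type spheroids combined patient-derived tumor cells with HUVEC endothelial cells and human mesenchymal stem cells. Paired agents were dosed in half-log steps down from about clinical Cmax, or from 10 microM where Cmax was unknown.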

[1] = second compound 0.0316 µM, first compound 0.0316 µM
[2] = second compound 0.0316 µM, first compound 0.1 µM
[3] = second compound 0.0316 µM, first compound 0.316 µM
[4] = second compound 0.0316 µM, first compound 1 µM
[5] = second compound 0.0316 µM, first compound 3.16 µM
[6] = second compound 0.0316 µM, first compound 10 µM
[7] = second compound 0.1 µM, first compound 0.0316 µM
[8] = second compound 0.1 µM, first compound 0.1 µM
[9] = second compound 0.1 µM, first compound 0.316 µM
[10] = second compound 0.1 µM, first compound 1 µM
[11] = second compound 0.1 µM, first compound 3.16 µM
[12] = second compound 0.1 µM, first compound 10 µM
[13] = second compound 0.316 µM, first compound 0.0316 µM
[14] = second compound 0.316 µM, first compound 0.1 µM
[15] = second compound 0.316 µM, first compound 0.316 µM
[16] = second compound 0.316 µM, first compound 1 µM
[17] = second compound 0.316 µM, first compound 3.16 µM
[18] = second compound 0.316 µM, first compound 10 µM
[19] = second compound 1 µM, first compound 0.0316 µM
[20] = second compound 1 µM, first compound 0.1 µM
[21] = second compound 1 µM, first compound 0.316 µM
[22] = second compound 1 µM, first compound 1 µM
[23] = second compound 1 µM, first compound 3.16 µM
[24] = second compound 1 µM, first compound 10 µM
[25] = second compound 3.16 µM, first compound 0.0316 µM
[26] = second compound 3.16 µM, first compound 0.1 µM
[27] = second compound 3.16 µM, first compound 0.316 µM
[28] = second compound 3.16 µM, first compound 1 µM
[29] = second compound 3.16 µM, first compound 3.16 µM
[30] = second compound 3.16 µM, first compound 10 µM
[31] = second compound 10 µM, first compound 0.0316 µM
[32] = second compound 10 µM, first compound 0.1 µM
[33] = second compound 10 µM, first compound 0.316 µM
[34] = second compound 10 µM, first compound 1 µM
[35] = second compound 10 µM, first compound 3.16 µM
[36] = second compound 10 µM, first compound 10 µM
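Further: spheroids exposed to compounds for seven days.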
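Wherever viability, T/C is given: 100% = DMSO vehicle control wells.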

Structure (SMILES): C#Cc1c(F)ccc2cc(O)cc(-c3ncc4c(N5CC6CCC(C5)N6)nc(OCC56CCCN5CC(F)C6)nc4c3F)c12 (centres undefined) + CNC(=O)c1ccc(Nc2nc(OC3CCCC3)c3c(-c4ccc5nc(C)oc5c4)c[nH]c3n2)c(OC)c1
- IC50 (second compound 0.0316 µM): > 10 µM
- IC50 (second compound 0.1 µM): > 10 µM
- IC50 (second compound 0.316 µM): > 10 µM
- IC50 (second compound 1 µM): > 10 µM
- IC50 (second compound 3.16 µM): 6.95 µM
- IC50 (second compound 10 µM): 5.79 µM
- viability, T/C [1]: 103%
- viability, T/C [2]: 115%
- viability, T/C [3]: 90.3%
- viability, T/C [4]: 102%
- viability, T/C [5]: 104%
- viability, T/C [6]: 108%
- viability, T/C [7]: 96.1%
- viability, T/C [8]: 99.8%
- viability, T/C [9]: 108%
- viability, T/C [10]: 98.4%
- viability, T/C [11]: 103%
- viability, T/C [12]: 108%
- viability, T/C [13]: 91.4%
- viability, T/C [14]: 86.5%
- viability, T/C [15]: 96.7%
- viability, T/C [16]: 87%
- viability, T/C [17]: 75.8%
- viability, T/C [18]: 70.3%
- viability, T/C [19]: 82.8%
- viability, T/C [20]: 79.4%
- viability, T/C [21]: 80.3%
- viability, T/C [22]: 71.5%
- viability, T/C [23]: 68.8%
- viability, T/C [24]: 52.3%
- viability, T/C [25]: 77.5%
- viability, T/C [26]: 72.5%
- viability, T/C [27]: 77.1%
- viability, T/C [28]: 73.2%
- viability, T/C [29]: 59.4%
- viability, T/C [30]: 45%
- viability, T/C [31]: 74.7%
- viability, T/C [32]: 73.1%
- viability, T/C [33]: 68.5%
- viability, T/C [34]: 67.7%
- viability, T/C [35]: 57%
- viability, T/C [36]: 43.1%

Structure (SMILES): CC(CO)NC(=O)c1cc(-c2ccc(Cl)cc2)nn(-c2cnn(C)c2)c1=O (centres undefined) + CNC(=O)c1ccc(Nc2nc(OC3CCCC3)c3c(-c4ccc5nc(C)oc5c4)c[nH]c3n2)c(OC)c1
- IC50 (second compound 0.0316 µM): > 10 µM
- IC50 (second compound 0.1 µM): > 10 µM
- IC50 (second compound 0.316 µM): > 10 µM
- IC50 (second compound 1 µM): > 10 µM
- IC50 (second compound 3.16 µM): > 10 µM
- IC50 (second compound 10 µM): > 10 µM
- viability, T/C [1]: 87.9%
- viability, T/C [2]: 94.3%
- viability, T/C [3]: 87.9%
- viability, T/C [4]: 101%
- viability, T/C [5]: 89.8%
- viability, T/C [6]: 103%
- viability, T/C [7]: 90.5%
- viability, T/C [8]: 97%
- viability, T/C [9]: 93.6%
- viability, T/C [10]: 103%
- viability, T/C [11]: 92.8%
- viability, T/C [12]: 97.8%
- viability, T/C [13]: 82.8%
- viability, T/C [14]: 84.2%
- viability, T/C [15]: 82.5%
- viability, T/C [16]: 75.4%
- viability, T/C [17]: 86.4%
- viability, T/C [18]: 85.9%
- viability, T/C [19]: 83.7%
- viability, T/C [20]: 69.9%
- viability, T/C [21]: 73.3%
- viability, T/C [22]: 73.9%
- viability, T/C [23]: 70.2%
- viability, T/C [24]: 77.1%
- viability, T/C [25]: 72.3%
- viability, T/C [26]: 67.2%
- viability, T/C [27]: 71%
- viability, T/C [28]: 70.6%
- viability, T/C [29]: 69.3%
- viability, T/C [30]: 76%
- viability, T/C [31]: 64.9%
- viability, T/C [32]: 71.2%
- viability, T/C [33]: 69.6%
- viability, T/C [34]: 66.6%
- viability, T/C [35]: 72.8%
- viability, T/C [36]: 70.7%
